From ChEMBL document CHEMBL1201862, “PubChem BioAssay data set” (2004) come the findings set out here.

Values joined by “and” are separate entries in the source; they are usually repeats but may differ in a detail not shown here. Equal values may be shown once. Active and inactive are the calls of the source. For most assays here, no stated cut-off is given here; in the data, actives have a measured EC50 and inactives only a lower limit. A value given as a limit tells only on which side of the number the result lay.

The target of assay [1] is T1, Replicative DNA helicase DnaB (Mycobacterium tuberculosis, UniProt P9WMR3).
T1 sequence (P9WMR3 whole entry): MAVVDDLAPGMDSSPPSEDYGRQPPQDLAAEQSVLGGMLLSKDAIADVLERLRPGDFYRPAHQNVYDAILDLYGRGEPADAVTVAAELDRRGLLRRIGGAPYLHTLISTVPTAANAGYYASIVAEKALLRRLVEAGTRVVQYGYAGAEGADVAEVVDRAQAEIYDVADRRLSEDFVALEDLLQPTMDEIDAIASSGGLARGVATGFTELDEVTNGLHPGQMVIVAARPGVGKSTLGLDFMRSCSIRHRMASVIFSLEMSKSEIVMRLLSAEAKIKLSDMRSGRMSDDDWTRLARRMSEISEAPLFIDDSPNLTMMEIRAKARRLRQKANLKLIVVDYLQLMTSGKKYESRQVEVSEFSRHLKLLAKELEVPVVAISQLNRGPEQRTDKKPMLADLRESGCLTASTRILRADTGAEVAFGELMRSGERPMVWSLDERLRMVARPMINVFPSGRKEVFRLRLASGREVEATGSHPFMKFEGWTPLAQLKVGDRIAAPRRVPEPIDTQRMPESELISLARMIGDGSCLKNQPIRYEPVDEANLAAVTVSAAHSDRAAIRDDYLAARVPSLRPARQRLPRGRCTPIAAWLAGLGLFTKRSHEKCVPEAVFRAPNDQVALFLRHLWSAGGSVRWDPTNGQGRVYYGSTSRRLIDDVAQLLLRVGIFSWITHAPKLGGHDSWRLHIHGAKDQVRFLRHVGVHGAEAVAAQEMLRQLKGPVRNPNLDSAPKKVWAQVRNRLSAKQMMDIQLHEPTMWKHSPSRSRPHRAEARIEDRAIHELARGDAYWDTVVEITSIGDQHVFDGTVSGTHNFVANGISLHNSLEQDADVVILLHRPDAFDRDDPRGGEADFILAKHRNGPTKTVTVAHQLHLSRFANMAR
In words: DnaB intein splicing inhibitors, dose response, biochemical, cell-free fluorescence (AID 449749). It is filed as functional.

For a further assay, the target named is T2, Protein RecA (Mycobacterium tuberculosis, UniProt P9WHJ3).
T2 sequence (P9WHJ3 whole entry): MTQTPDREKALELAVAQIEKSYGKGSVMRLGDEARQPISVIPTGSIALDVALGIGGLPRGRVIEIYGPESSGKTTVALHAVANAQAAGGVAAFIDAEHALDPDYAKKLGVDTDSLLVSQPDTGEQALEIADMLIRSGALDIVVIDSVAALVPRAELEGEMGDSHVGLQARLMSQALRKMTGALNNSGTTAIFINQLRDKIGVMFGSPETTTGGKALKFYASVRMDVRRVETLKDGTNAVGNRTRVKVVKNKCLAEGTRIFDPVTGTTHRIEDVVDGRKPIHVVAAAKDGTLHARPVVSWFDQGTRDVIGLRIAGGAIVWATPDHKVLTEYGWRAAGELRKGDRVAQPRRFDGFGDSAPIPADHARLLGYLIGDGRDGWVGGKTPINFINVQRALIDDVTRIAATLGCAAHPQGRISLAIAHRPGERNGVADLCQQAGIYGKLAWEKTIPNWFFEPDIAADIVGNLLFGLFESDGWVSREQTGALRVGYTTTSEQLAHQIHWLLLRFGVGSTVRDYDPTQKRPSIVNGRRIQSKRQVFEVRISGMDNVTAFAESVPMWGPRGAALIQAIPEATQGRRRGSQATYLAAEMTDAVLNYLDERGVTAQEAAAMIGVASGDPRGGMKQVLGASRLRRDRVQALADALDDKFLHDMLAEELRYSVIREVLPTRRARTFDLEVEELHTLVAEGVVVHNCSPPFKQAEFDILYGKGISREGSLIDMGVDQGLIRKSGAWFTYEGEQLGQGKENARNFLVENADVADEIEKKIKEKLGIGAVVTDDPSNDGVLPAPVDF
The experiment in a line: Fluorescence Cell-Free Homogeneous Dose Retest to Identify Inhibitors of RecA-Intein Splicing Activity. [Related pubchem assays (depositor defined):AID2097, AID2223, AID489010, AID492950]. It is filed as functional.

Another assay has as its target Cytochrome P450 3A4 (Homo sapiens, UniProt P08684).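 Further: CYP3A4 tested as one member of a cytochrome P450 panel screen.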
Assay [2] concerns the target T3, Heat shock factor protein 1 (Mus musculus, UniProt P38532).
T3 sequence (P38532 whole entry): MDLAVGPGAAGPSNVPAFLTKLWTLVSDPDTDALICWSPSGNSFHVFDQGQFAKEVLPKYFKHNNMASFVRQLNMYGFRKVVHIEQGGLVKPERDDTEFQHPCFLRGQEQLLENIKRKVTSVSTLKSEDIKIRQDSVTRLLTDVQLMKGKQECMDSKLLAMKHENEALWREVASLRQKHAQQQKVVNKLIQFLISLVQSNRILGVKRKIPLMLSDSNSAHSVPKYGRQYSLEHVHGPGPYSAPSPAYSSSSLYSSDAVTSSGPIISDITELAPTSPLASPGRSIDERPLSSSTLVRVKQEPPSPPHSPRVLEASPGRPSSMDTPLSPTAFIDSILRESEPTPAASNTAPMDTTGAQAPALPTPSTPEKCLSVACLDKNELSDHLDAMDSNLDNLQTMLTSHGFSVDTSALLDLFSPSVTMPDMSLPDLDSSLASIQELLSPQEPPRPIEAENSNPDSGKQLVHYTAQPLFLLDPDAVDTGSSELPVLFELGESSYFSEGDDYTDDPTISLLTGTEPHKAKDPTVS
The experiment in a line: decrease of HSF1-responsive luciferase luminescence – cell-based, NIH3T3, dose retest, confirmation (AID 2382).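 Further: NIH3T3 fibroblasts with HSF1-driven luciferase reporter stressed by proteasome inhibitor MG132; luminescence from HSF1-driven luciferase expression after 8 hours of MG132 stress.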 It is filed as functional.

Assay [3] is described as follows: Trypanosoma cruzi growth suppression in host cells – NIH3T3 host cells, beta-gal luminescence, confirmation (AID 2044).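 Further: intracellular parasites grown in NIH/3T3 mouse fibroblasts as host cells; luminescent beta-galactosidase reporter signal from transgenic T. cruzi replicating inside host cells; inhibitors lower the luminescence signal.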 It is filed as functional, cell-based.
Assay [4] can be described thus: NIH3T3 cell viability loss – ATP luminescence, mouse fibroblasts, counter-screen, dose response (AID 2010).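 Further: cells exposed to compound for about 90 hours before reading.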 It is filed as functional, cell-based.
The subject of assay [5] is Streptococcus sp. 'group A'. In words: Streptococcus pyogenes SK(-)GAS viability under kanamycin – luminescence, BacTiterGlo, confirmation, counter-screen for streptokinase expression inhibitor project, dose response (AID 1900). It is filed as functional, organism-based. A general note: The purpose of a counterscreen is to sort out artefacts and off-target activity.
A further assay deals with Streptococcus. The experiment in a line: GAS UMAA2166 growth inhibition – luminescence, BacTiterGlo, counter-screen for streptokinase expression inhibitor project, dose response (AID 1915).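 Further: potency for reduction of bacterial viability or growth.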 It is filed as functional, organism-based.
A further assay deals with Cytochrome P450 2D6 (Homo sapiens, UniProt P10635).
Cytochrome P450 2D6, sequence (P10635 whole entry): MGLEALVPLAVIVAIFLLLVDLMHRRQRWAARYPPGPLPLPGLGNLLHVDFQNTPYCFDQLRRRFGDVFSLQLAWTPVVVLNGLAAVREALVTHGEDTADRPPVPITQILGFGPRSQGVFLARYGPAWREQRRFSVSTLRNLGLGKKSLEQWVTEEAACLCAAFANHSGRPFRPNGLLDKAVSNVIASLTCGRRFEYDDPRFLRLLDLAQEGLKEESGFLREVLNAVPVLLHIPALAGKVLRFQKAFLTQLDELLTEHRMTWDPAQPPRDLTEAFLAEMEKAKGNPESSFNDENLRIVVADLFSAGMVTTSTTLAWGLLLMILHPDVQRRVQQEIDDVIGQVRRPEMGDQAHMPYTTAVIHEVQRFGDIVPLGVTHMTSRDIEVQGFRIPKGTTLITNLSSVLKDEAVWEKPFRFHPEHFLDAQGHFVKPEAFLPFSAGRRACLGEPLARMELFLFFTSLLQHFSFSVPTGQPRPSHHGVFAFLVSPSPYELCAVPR

Cytochrome P450 3A4, sequence (P08684 whole entry): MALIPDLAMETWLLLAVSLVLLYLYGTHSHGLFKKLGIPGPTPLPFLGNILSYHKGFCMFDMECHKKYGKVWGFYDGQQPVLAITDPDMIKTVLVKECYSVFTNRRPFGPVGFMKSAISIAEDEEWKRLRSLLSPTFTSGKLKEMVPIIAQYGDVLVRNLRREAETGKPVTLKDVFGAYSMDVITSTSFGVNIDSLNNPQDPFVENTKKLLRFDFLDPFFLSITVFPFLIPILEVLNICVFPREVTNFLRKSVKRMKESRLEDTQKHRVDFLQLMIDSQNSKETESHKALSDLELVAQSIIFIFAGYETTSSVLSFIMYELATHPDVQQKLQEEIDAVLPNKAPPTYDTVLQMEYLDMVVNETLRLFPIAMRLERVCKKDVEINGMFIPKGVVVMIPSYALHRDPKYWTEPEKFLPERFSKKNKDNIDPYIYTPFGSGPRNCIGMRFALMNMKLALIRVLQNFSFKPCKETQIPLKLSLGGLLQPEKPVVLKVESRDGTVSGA

Turning to `CCOC(=O)N1C(=O)[C@](c2ccc(Cl)cc2)(C(C)C)N1C(=O)OCC`, the AC50 – broadly, the midpoint of the concentration-response curve, whichever way the signal moves – in assay [1] is 3.09 µM (active). Also, the EC50 (in general, the midpoint of the concentration-response curve) on Protein RecA was 3.34 µM (active).
Regarding `O=C(N/N=C1/C[C@@H](O)[C@@H](O)[C@@H]2[C@H]3C(=O)N(c4ccc(F)cc4F)C(=O)[C@@H]3CC[C@H]12)OCc1ccccc1`, the half-maximal activity concentration (AC50) on Cytochrome P450 3A4 was 3.98 µM (inconclusive).
On to `COc1ccc(N(C(=O)c2ccco2)S(=O)(=O)c2cccs2)cc1`, for which, in assay [1], the AC50 was 38.1 µM (active). Further, at Protein RecA, the concentration giving a half-maximal response (EC50) is 32.6 µM (active).
Take `O=C(c1ccncc1)N1CCN(c2ccc(F)cc2)CC1`: the EC50 in [2] was > 195 µM (not active).
Consider `CC(C)Cn1c(N)c(S(=O)(=O)c2cccs2)c2nc3ccccc3nc21`, for which, in assay [1], the AC50 was > 380 µM (inactive). The EC50 at Protein RecA is 32.9 µM (inconclusive).
On the same counts, the results for `CCOC(=O)CSCCOc1ccc(C=C2C(=O)NC(=O)NC2=O)cc1OC` are 46.6 µM (active) and > 380 µM (inactive).
Regarding `CN1[C@@H]2CC[C@H]1CC(O[C@@H](c1ccccc1)c1ccc(Cl)cc1)C2` (stereo not given in full), the AC50 on Cytochrome P450 3A4 was 12.6 µM (inconclusive) and 15.8 µM (inconclusive).
Take `CCOC(=O)N1CCN(Cc2nc3c(c(=O)n(C)c(=O)n3C)n2Cc2ccccc2)CC1`: in assay [2], the 50% effective concentration (EC50) was > 195 µM (not active).
Still for that read-out and setting: the figure for `CN(Cc1ccccc1)C(=O)c1ccccc1NC(=O)C1=CSCCO1` is > 195 µM (not active).
On to `Cc1cc(C(=O)CCl)c(C)n1CC1COc2ccccc2O1` (stereo not given), for which the EC50 in assay [3] was 1.81 µM (active); in assay [4], 4.42 µM (active); on Protein RecA it was 13.5 µM (active). In [1], the AC50 was 21.7 µM (active).
Turning to `O=C(CSC1=NCCN1)Nc1ccccc1`, at Cytochrome P450 3A4, the AC50 was 5.01 µM (inconclusive).
Turning to `CCOC(=O)c1cccc(NC(=O)CCS(=O)(=O)c2ccc(Br)s2)c1`, the EC50 in [2] was > 195 µM (not active).
Still for that read-out and setting: for `COc1cc(C(=O)NC2CCN(Cc3nnnn3Cc3cccs3)CC2)cc(OC)c1OC` the value was > 195 µM (not active).
As for `C/C(N)=C(/C#N)C(=O)CSc1nc2scc(-c3ccc(F)cc3)c2c(=O)n1C`, the concentration for a half-maximal effect (EC50) in assay [5] is 2 µM (active); in the assay on Streptococcus, 3.17 µM (active).
With `Cc1cc(C(F)(F)F)nc(SCc2ccc(C(=O)O)o2)n1`, the EC50 in assay [2] was > 195 µM (not active).
In the case of `CCOc1ccc(CN(C)C(=O)CCl)cc1`, the AC50 in assay [1] is > 380 µM (inactive). Also, on Protein RecA, the EC50 is 4.09 µM (active).
With `Cc1cc(C(F)F)nn1CC(=O)NC1C(=O)N2C(C(=O)O)=C(CSc3nnnn3C)CSC12` (stereo not given), the 50% effective concentration (EC50) in assay [5] is 0.09 µM (active); in the assay on Streptococcus, 0.106 µM (active).
In the case of `CC(C)CNC(=O)C1CCN(Cc2ccc(OCc3ccccc3)cc2)CC1`, the EC50 in assay [2] is listed as > 195 µM (not active).
On to `CCN1CCN(CCNC(=O)CCCCCn2c(=O)[nH]c3cc(C(=O)OC)ccc3c2=O)CC1`, for which the EC50 in assay [2] is > 195 µM (not active).
Same read-out and setting: for `Cc1ccc(NC(=O)c2cc(NC(=O)c3ccco3)ccc2N2CCOCC2)cc1` the value was > 195 µM (not active).
For `C/C(CCC(=O)OC[C@@H]1O[C@H](C#Cc2ccccc2)C=C[C@@H]1Oc1ccc(C)cc1)=N/OC[C@@H](C)[C@H](OCc1ccccc1)C(C)C`, the AC50 at Cytochrome P450 3A4 was 3.98 µM (inconclusive).
For `COc1ccc(NC(=O)c2cc3cc(OC)ccc3oc2=N)cc1`, in [2], the EC50 was > 195 µM (not active).
On to `O=C(Cc1cc(O)n[nH]1)N/N=C/c1ccccc1[N+](=O)[O-]`, for which, in [1], the AC50 is 4.19 µM (active). Further, at Protein RecA, the EC50 is 1.73 µM (active).
Turning to `N#CC1(C#N)CC(C=O)=C(N)C1(C#N)CC(=O)C12CC3CC(CC(C3)C1)C2` (stereo not given), the AC50 in assay [1] is > 380 µM (inactive). Further, on Protein RecA, the 50% effective concentration (EC50) is 10 µM (active).
Take `Cc1ccc(C(=O)N/C(=C\c2ccc(Br)cc2)c2n[nH]c(S)n2)cc1`: the EC50 in [2] is given as > 195 µM (not active). Besides, the AC50 at Cytochrome P450 2D6 was 31.6 µM (inconclusive).
Turning to `Cc1ccc(C2CC(c3cccs3)=NN2C(=O)CSC2=NCCS2)cc1` (stereo not given), the half-maximal activity concentration (AC50) in [1] is 6.2 µM (active). For the same molecule, the EC50 at Protein RecA is 6.68 µM (active).
In the case of `CCO/C(O)=C1\C(C)=NC(=S)NC1c1ccsc1` (stereo not given), the concentration giving a half-maximal response (EC50) in assay [2] is > 195 µM (not active).
Turning to `Cc1ccc(C(=O)NC(C#N)=C(Cl)Cl)cc1`, in assay [1], the AC50 was 27.1 µM (active). For the same molecule, the concentration giving a half-maximal response (EC50) at Protein RecA was 19.5 µM (active).
The matching figures for `Cc1nn(-c2ccccc2)c2c1C(c1ccc(F)cc1F)C(C#N)=C(N)O2` (stereo not given): 7.25 µM (active) and 3.5 µM (active).
For `COc1ccc(C(=O)N2CCC3(CCCN(Cc4ccccc4)C3)CC2)cc1`, at Cytochrome P450 3A4, the AC50 was 31.6 µM (inconclusive).
`C=CCN1CC[C@]23c4c5ccc(O)c4O[C@@H]2/C(=N/NC(=O)c2ccccc2)CC[C@@]3(O)[C@H]1C5`: the AC50 is 15.8 µM (inconclusive) at Cytochrome P450 2D6 and 3.98 µM (inconclusive) on Cytochrome P450 3A4.
For `O=C(NCC1CCCO1)c1onc(CSc2ccc(Cl)cc2)c1C(=O)O` (stereo not given), the EC50 in assay [2] is 9.58 µM (active).
For the molecule `Cc1ccsc1/C=N/NC(=O)Cc1cc(O)[nH]n1`, the half-maximal activity concentration (AC50) in assay [1] was 1.68 µM (active). For the same molecule, at Protein RecA, the concentration for a half-maximal effect (EC50) is 1.28 µM (active).
With `CCc1cccc2c(-c3ccccc3)c3c(nc12)OCC3`, the AC50 at Cytochrome P450 2D6 is 15.8 µM (inconclusive).
Take `CNC[C@H](O)c1ccc(OC(=O)C(C)(C)C)c(OC(=O)C(C)(C)C)c1`: on Cytochrome P450 3A4, the concentration at half-maximal activity (AC50) was 10 µM (inconclusive).
As for `CCC(C)(NC(=O)c1ccccc1)C(=O)O` (stereo not given), the concentration for a half-maximal effect (EC50) in assay [2] was > 195 µM (not active).
Consider `Cc1ccc2[nH]c(SCc3nc(O)c4cnn(-c5ccccc5)c4n3)nc2c1`, for which the concentration at half-maximal activity (AC50) on Cytochrome P450 2D6 is 28.2 µM (inconclusive).
